This passage reports logP and Ki results from ChEMBL document CHEMBL1128435, “Synthesis of carbon-11-, fluorine-18-, and iodine-125-labeled GABAA-gated chloride ion channel blockers: substituted 5-tert-butyl-2-phenyl-1,3-dithianes and -dithiane oxides” (J Med Chem, 1995).

In general, logP refers to a log measure of how a compound divides between an organic and an aqueous phase. A low value points to a more hydrophilic compound. By Ki is commonly meant the equilibrium dissociation constant of an inhibitor or competing ligand from its target. A lower Ki goes with a stronger hold on the target.

Data set [1] in a line: Partition coefficient (logP). Particulars: octanol/water. The data set is classed as physicochemical.
Data set [2] has as its target GABA-A receptor; anion channel. The data set can be described thus: In vitro displacement of [3H]TBOB from Gamma-aminobutyric acid A (GABA-A) receptor of rat brain. Background: In a radioligand displacement assay an active substance lowers the binding of a labelled ligand.

The structures appear in SMILES notation.

`CC1(c2ccc(I)cc2)SCC(C(C)(C)C)CS1` (stereo unspecified) displayed a logP in data set [1] of 6.5. This compound also returned an inhibition constant Ki in data set [2] of 1900 nM. In data set [1], `CC1(c2ccc(C#N)cc2)SCC(C(C)(C)C)CS1` (stereo unspecified) showed a log partition coefficient (logP) of 4.89. Compound `CC(C)(C)C1CSC(c2ccc(F)cc2)SC1` (stereo unspecified) had a logP in data set [1] of 4.97. For `C#Cc1ccc(C2SCC(C(C)(C)C)CS2)cc1` (stereo unspecified), the logP in data set [1] was found to be 4.96. The compound further gave an inhibition constant (Ki) in data set [2] of 85 nM. The matching figures for `CC(C)(C)C1CS(=O)(=O)C(C)(c2ccc(I)cc2)S(=O)(=O)C1` (stereo unspecified): 1.95 and 105 nM. Consider `CC(C)(C)[C@H]1CS(=O)(=O)[C@@](C)(c2ccc(C#N)cc2)S(=O)(=O)C1` (stereo in doubt; 9a), for which the affinity in data set [2] corresponds to a Ki of 200 nM. As to `CC(C)(C)C1CS(=O)(=O)C(C)(c2ccc(C#N)cc2)S(=O)(=O)C1` (stereo unspecified), the logP in data set [1] was determined as 0.351. For the same compound, the inhibitory constant (Ki) in data set [2] was found to be 87 nM. As for `CC(C)(C)C1CSC(c2ccc(C#N)cc2)SC1` (stereo unspecified), in data set [1], the logP amounted to 4.38. Also, affinity in data set [2] was put at a Ki of 240 nM. The matching figures for `CC(C)(C)C1CS(=O)(=O)C(c2ccc(F)cc2)S(=O)(=O)C1` (stereo unspecified): 0.43 and 180 nM. Turning to `CC(C)(C)[C@H]1CS(=O)(=O)[C@@](C)(c2ccc(C#N)cc2)S(=O)(=O)C1` (stereo in doubt; 9b), the affinity in data set [2] corresponds to a Ki of 41 nM.
